Measured values published in patent US20040126359A1, “Hedgehog” (priority 2001, published 2004).
Each block holds one molecule with its values, some of them ahead of it.

What was measured:
CD4+ T-cells = assay: Taqman real time PCR of Shh, Ihh, HIP and Ptc expression in CD4+ T-cells (FIGS. 14, 15, 17); assay type: cell-based; settings: for Shh expression / production by activated T-cells: cytokine added; for Hip expression / Shh expression: activated T-cells, IFNγ
Experimental: Expression in medium, in the presence of 50 ng/ml IL-10 and in the presence of 50 ng/ml IFN-γ was compared to expression in resting CD4+ T-cells;
Similar experiments were used to study the expression of Shh (FIG. 4) and Ptc (FIG. 5) in T-cells and the expression of components of the Hh signalling pathway in lymphoid tissues (FIG. 6). FIG. 14 illustrates the results of an RT-PCR analysis of Shh, Ihh, Hip and Ptc expression. Activation of T-cells induced a sustained and marked (approximately 80-fold) increase in Shh mRNA, peaking at 44 and 72 hours. It lead to a downregulation of Ptc.

[1] = molecular target: endogenous Shh produced by activated mouse CD4+ T-cells (mouse) (UniProt Q62226); assay: cell-based or functional assay
Sequence of endogenous Shh produced by activated mouse CD4+ T-cells (mouse) (Q62226 25-198 limits assumed): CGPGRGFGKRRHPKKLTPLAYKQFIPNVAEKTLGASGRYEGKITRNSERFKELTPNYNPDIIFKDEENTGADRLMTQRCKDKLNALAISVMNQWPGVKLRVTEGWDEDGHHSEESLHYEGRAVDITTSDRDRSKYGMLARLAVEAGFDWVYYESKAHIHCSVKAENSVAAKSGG

Molecule: TGF-β
Shh expression / production by activated T-cells (CD4+ T-cells): down-regulate

Molecule: IFNγ: cytokine interferon gamma
Hip expression (CD4+ T-cells; 24 and 48 hours): upreguated | Shh expression (CD4+ T-cells; 24 hours): downregulation | Shh expression (CD4+ T-cells; 48 hours): upregulation | Hip expression (CD4+ T-cells; 72 hours): downregulted | Shh expression / production by activated T-cells (CD4+ T-cells): downregulation

% decrease in the proportion of CD4+ T-cells in S/G2 with anti-Shh antibody (50 µg/ml), cell cycle analysis [1]: 66.2 to 81.6% | % decrease in the proportion of CD4+ T-cells in S/G2 with anti-Shh antibody (50 µg/ml), cell cycle analysis, mean [1]: 73.4% | decrease in proliferation of sub-optimally activated CD4+ T-cells with 50 µg/ml anti-Shh antibody (3H-TdR incorporation) [1]: 71.3 to 85.1%
Molecule: neutralising anti-Shh antibody 5E1

B1: IL-10: immunosuppressive cytokine, interleukin (protein, UniProt P22301 19-178, looked up)
Interleukin-10: SPGQGTQSENSCTHFPGNLPNMLRDLRDAFSRVKTFFQMKDQLDNLLLKESLLEDFKGYLGCQALSEMIQFYLEEVMPQAENQDPDIKAHVNSLGENLKTLRLRLRRCHRFLPCENKSKAVEQVKNAFNKLQEKGIYKAMSEFDIFINYIEAYMTMKIRN
Shh expression / production by activated T-cells (CD4+ T-cells): down-regulate
